One data set concerns NIH3T3. As to the kind of experiment: Cytotoxicity against mouse H-Ras transformed NIH/3T3 cells by soft agar colony formation assay. Type of data set: functional, cell-based.
The nature of data set [1]: Inhibition of farnesyl protein transferase assessed as transfer of [3H]farnesyl from [3H]farnesyl pyrophosphate to […].
For the next data set, the system named is Rattus norvegicus. In words: (§1) AUC (0 to 6 hrs) in rat at 10 mg/kg. It counts as ADME, organism-based, Plasma. Also on record: time < 6 hr, dose 10 mg/kg. As to conditions: in vivo, 6 h; call rule not given here.
Data set [2] is described as follows: as §1. Type of data set: ADME, organism-based, Plasma. Details: time < 6 hr, dose 10 mg/kg. As to conditions: plasma.
The mark [3] stands for this setting: Mus musculus, NIH3T3, read-out: IC50.

Each structure is given as a SMILES string.

By IC50 is commonly meant the midpoint of a concentration-inhibition curve. The term AUC denotes the area under the concentration-time curve, a measure of exposure. The term AUC(0-t) denotes exposure summed from dosing to a finite time, without extrapolation to infinity. A high value points to high exposure.

For the compound `Cn1cncc1[C@H](O)C1=Cc2cccnc2[C@@H](N2CCN(C(=O)Nc3ccc(C#N)cc3)CC2)c2ccc(Cl)cc21`, the half-inhibitory concentration (IC50) (with NIH3T3 (setting [3]); in data set [1]) was 500 pM each time. The exposure (AUC) in the data set with Rattus norvegicus stood at 0.1 µM·h.

Turning to `CC(C)OC(=O)N1CCN([C@H]2c3ccc(Cl)cc3C([C@@H](O)c3cncn3C)=Cc3cccnc32)CC1`, the IC50 with NIH3T3 (setting [3]) is 500 pM; in data set [1] it was 750 pM.

On to `Cn1cncc1[C@H](O)C1=Cc2cccnc2[C@@H](N2CCN(C(=O)OC3CCCCC3)CC2)c2ccc(Cl)cc21`, for which the half-inhibitory concentration (IC50) (in the data set with NIH3T3 (setting [3]); in data set [1]) was 1000 pM throughout.

Regarding `Cn1cncc1[C@H](O)C1=Cc2cccnc2[C@@H](N2CCN(C(=O)OC3CCCC3)CC2)c2ccc(Cl)cc21`, the IC50 in the data set on NIH3T3 (setting [3]) was 500 pM; in data set [1], 760 pM.

On to `CO[C@@H](C1=Cc2cccnc2[C@@H](N2CCN(C(=O)OC(C)(C)C)CC2)c2ccc(Cl)cc21)c1cncn1C`, for which the IC50 in the data set on NIH3T3 (setting [3]) turned out to be 4000 pM; in data set [1], 2100 pM.

In the case of `Cn1cncc1[C@H](O)C1=Cc2cccnc2[C@@H](N2CCN(C(=O)OC(C)(C)C)CC2)c2ccc(Cl)cc21`, the half-inhibitory concentration (IC50) in the data set with NIH3T3 (setting [3]) stood at 500 pM; in data set [1], 380 pM. In data set [2], this compound yielded an exposure AUC(0-t) at 6 h of 2.57 µM·h.

Regarding `Cn1cncc1CC1=Cc2cccnc2[C@@H](N2CCN(C(=O)Nc3ccc(C#N)cc3)CC2)c2ccc(Cl)cc21`, the IC50 worked out at 500 pM in the data set with NIH3T3 (setting [3]) and 290 pM in data set [1].

Turning to `Cn1cncc1[C@H](O)C1=Cc2cccnc2[C@@H](N2CCN(C(=O)NCc3ccccc3)CC2)c2ccc(Cl)cc21`, the IC50 in the data set with NIH3T3 (setting [3]) was found to be 2700 pM; in data set [1] it was 130 pM.

Regarding `Cn1cncc1[C@H](O)C1=Cc2cccnc2[C@@H](N2CCN(C(=O)NC3CCCCC3)CC2)c2ccc(Cl)cc21`, the IC50 in the data set on NIH3T3 (setting [3]) worked out at 18000 pM; in data set [1] it was 470 pM.

As for `Cn1cncc1CC1=Cc2cccnc2[C@H](N2CCN(C(=O)Nc3ccc(C#N)cc3)CC2)c2ccc(Cl)cc21`, the IC50 result was “Not Active” in the data set on NIH3T3 (nih3t3) and 9600 pM in data set [1].

Turning to `Cn1cncc1[C@@H](O)C1=Cc2cccnc2[C@@H](N2CCN(C(=O)OC(C)(C)C)CC2)c2ccc(Cl)cc21`, the IC50 entry was “Not Active” with NIH3T3 (nih3t3) and 12000 pM in data set [1].

Take `CO[C@H](C1=Cc2cccnc2[C@@H](N2CCN(C(=O)OC(C)(C)C)CC2)c2ccc(Cl)cc21)c1cncn1C`: the IC50 was 10000 pM in the data set with NIH3T3 (setting [3]) and 4800 pM in data set [1].

With `CC(=O)O[C@H](C1=Cc2cccnc2[C@@H](N2CCN(C(=O)OC(C)(C)C)CC2)c2ccc(Cl)cc21)c1cncn1C`, the results for the half-maximal inhibitory concentration (IC50) (with NIH3T3 (setting [3]); in data set [1]) were 1000 pM and 5500 pM, respectively.

Turning to `Cn1cncc1[C@H](O)C1=Cc2cccnc2[C@@H](N2CCN(C(=O)OC3(C)CCCCC3)CC2)c2ccc(Cl)cc21`, the IC50 in the data set on NIH3T3 (setting [3]) was 1000 pM; in data set [1], 300 pM.

As to `Cn1cncc1[C@H](O)C1=Cc2cccnc2[C@@H](N2CCN(C(=O)NC(C)(C)C)CC2)c2ccc(Cl)cc21`, the IC50 with NIH3T3 (setting [3]) was 500 pM; in data set [1], 400 pM.

On to `N#Cc1ccc(NC(=O)N2CCN([C@H]3c4ccc(Cl)cc4C(Cc4cnc[nH]4)=Cc4cccnc43)CC2)cc1`, for which the IC50 with NIH3T3 (setting [3]) is 4000 pM; in data set [1], 310 pM.
